In general, Ki refers to a measure of affinity in units of concentration, obtained from inhibition or displacement.

We go through 26 molecules from patent US20240239781A1, “1H-PYRAZOLE DERIVATIVES AS SIGMA LIGANDS” (ACONDICIONAMIENTO TARRASENSE, priority 2021, published 2024).

Molecules are shown by their SMILES.

One assay concerns the target T1, human σ2/TMEM97 receptor (Homo sapiens, UniProt Q5BJF2).
T1 construct: expressed in transfected cells; host or cells: HEK-293
The experiment in a line: Binding assay to human σ2/TMEM97 receptor ([3H]-DTG, transfected HEK-293 membranes). The note with it: class scale, read-out: Binding σ-2 Ki. How it is done: Transfected HEK-293 membranes (15 μg) were incubated with 10 nM [^3H]-1,3-Di-o-tolylguanidine (DTG) in assay buffer containing Tris-HCl 50 mM at pH 8.0. NSB (non-specific binding) was measured by adding 10 μM haloperidol. The binding of the test compound was measured at either one concentration (% inhibition at 1 or 10 μM) or five different concentrations to determine affinity values (Ki). Plates were incubated at 25° C. for 120 minutes. After the incubation period, the reaction mix was transferred to MultiScreen HTS, FC plates (Millipore), filtered and washed 3 times with ice-cold 10 mM Tris-HCL (pH 8.0). Filters were dried and counted at approximately 40% efficiency in a MicroBeta scintillation counter (Perkin-Elmer) using EcoScint liquid scintillation cocktail.

The next assay deals with T2, human σ1 receptor (Homo sapiens, UniProt Q99720).
T2 construct: expressed in transfected cells; host or cells: HEK-293
The assay is described as follows: Human σ1 receptor radioligand assay ([3H](+)-pentazocine, transfected HEK-293 membranes). The conditions noted are these: class scale, read-out: Binding σ-1 Ki. How it is done:
Transfected HEK-293 membranes (7 μg) were incubated with 5 nM of [^3H](+)-pentazocine in assay buffer containing Tris-HCl 50 mM at pH 8. NBS (non-specific binding) was measured by adding 10 μM haloperidol. The binding of the test compound was measured at either one concentration (% inhibition at 1 or 10 μM) or five different concentrations to determine affinity values (Ki). Plates were incubated at 37° C. for 120 minutes. After the incubation period, the reaction mix was then transferred to MultiScreen HTS, FC plates (Millipore), filtered and plates were washed 3 times with ice-cold 10 mM Tris-HCL (pH7.4). Filters were dried and counted at approximately 40% efficiency in a MicroBeta scintillation counter (Perkin-Elmer) using EcoScint liquid scintillation cocktail.

T2 sequence (Q99720 whole entry): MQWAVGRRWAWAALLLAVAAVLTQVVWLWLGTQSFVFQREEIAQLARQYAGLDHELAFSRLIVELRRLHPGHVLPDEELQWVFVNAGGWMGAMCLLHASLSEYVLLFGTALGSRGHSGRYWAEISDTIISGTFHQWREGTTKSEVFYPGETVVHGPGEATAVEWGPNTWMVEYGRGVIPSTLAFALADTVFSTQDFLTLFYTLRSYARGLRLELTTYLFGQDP
T1 sequence (Q5BJF2 whole entry): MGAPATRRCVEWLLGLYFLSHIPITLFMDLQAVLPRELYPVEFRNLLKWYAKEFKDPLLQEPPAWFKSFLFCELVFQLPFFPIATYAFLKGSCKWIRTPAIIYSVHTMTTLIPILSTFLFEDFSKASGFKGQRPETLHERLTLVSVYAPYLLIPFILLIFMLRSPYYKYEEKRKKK

Regarding `Cc1cc(-c2nn(C)c(Cl)c2CN2CCC(CNCc3ccccc3)CC2)no1` [Example 56, N-Benzyl-1-(1-((5-chloro-1-methyl-3-(5-methylisoxazol-3-yl)-1H-pyrazol-4-yl)methyl)piperidin-4-yl)methanamine], the Ki at human σ2/TMEM97 receptor and at human σ1 receptor was 100 to 500 nM throughout.

Take `Cc1cc(-c2nn(C)c(Cl)c2CN2CCCC(CNCCc3ccccc3)C2)no1` (stereo not shown) [Example 57, N-((1-((5-Chloro-1-methyl-3-(5-methylisoxazol-3-yl)-1H-pyrazol-4-yl)methyl)piperidin-3-yl)methyl)-2-phenylethanamine]: the Ki was 100 to 500 nM at human σ2/TMEM97 receptor and 500 to 1000 nM at human σ1 receptor.

Regarding `Cc1cc(-c2nn(C)c(Cl)c2CN2CCCC(CNCCC(C)C)C2)no1` (stereo not shown) [Example 58, N-((1-((5-Chloro-1-methyl-3-(5-methylisoxazol-3-yl)-1H-pyrazol-4-yl)methyl)piperidin-3-yl)methyl)-3-methylbutan-1-amine], the Ki is less than 100 nM on human σ2/TMEM97 receptor and 100 to 500 nM on human σ1 receptor.

Turning to `Cc1cc(-c2nn(C)c(Cl)c2CN2CCCCC(CNCCC(C)C)C2)no1` (stereo not shown) [Example 59, N-((1-((5-Chloro-1-methyl-3-(5-methylisoxazol-3-yl)-1H-pyrazol-4-yl)methyl)azepan-3-yl)methyl)-3-methylbutan-1-amine], the Ki on human σ2/TMEM97 receptor lay within 100 to 500 nM; on human σ1 receptor it was 500 to 1000 nM.

Take `Cc1cc(-c2nn(C)c(Cl)c2CN2CCC3(C2)CN(Cc2ccccc2)C3)no1` [Example 60, 3-(4-((2-Benzyl-2,6-diazaspiro[3.4]octan-6-yl)methyl)-5-chloro-1-methyl-1H-pyrazol-3-yl)-5-methylisoxazole]: the figures for the Ki on human σ2/TMEM97 receptor and at human σ1 receptor were 100 to 500 nM and less than 100 nM, respectively.

As for `Cc1cc(-c2nn(C)c(Cl)c2CN2CCC3(C2)CN(CCc2ccccc2)C3)no1` [Example 61, 3-(5-Chloro-1-methyl-4-((2-phenethyl-2,6-diazaspiro[3.4]octan-6-yl)methyl)-1H-pyrazol-3-yl)-5-methylisoxazole], the Ki at human σ2/TMEM97 receptor is less than 100 nM; on human σ1 receptor, 100 to 500 nM.

For `Cc1cc(-c2nn(C)c(Cl)c2CN2CCC(C3(NCCC(C)C)CC3)C2)no1` (stereo not shown) [Example 62, 1-(1-((5-Chloro-1-methyl-3-(5-methylisoxazol-3-yl)-1H-pyrazol-4-yl)methyl)pyrrolidin-3-yl)-N-isopentylcyclopropanamine], the Ki on human σ2/TMEM97 receptor was in the range of 100 to 500 nM; on human σ1 receptor, 500 to 1000 nM.

Take `Cc1cc(-c2nn(C)c(Cl)c2CN2CCCC(C3(NCCC(C)C)CC3)C2)no1` (stereo not shown) [Example 63, 1-(1-((5-Chloro-1-methyl-3-(5-methylisoxazol-3-yl)-1H-pyrazol-4-yl)methyl)piperidin-3-yl)-N-isopentylcyclopropanamine]: the Ki is 100 to 500 nM on human σ2/TMEM97 receptor and less than 100 nM at human σ1 receptor.

For the molecule `Cc1cc(-c2nn(C)c(Cl)c2CN2CCCOC(CNCCC(C)C)C2)no1` (stereo not shown) [Example 64, N-((4-((5-Chloro-1-methyl-3-(5-methylisoxazol-3-yl)-1H-pyrazol-4-yl)methyl)-1,4-oxazepan-2-yl)methyl)-3-methylbutan-1-amine], the inhibitory constant (Ki) at human σ2/TMEM97 receptor and on human σ1 receptor was 100 to 500 nM throughout.

As to `Cc1cc(-c2nn(C)c(Cl)c2CN2CCC3(CC2)CCN(C(C)c2ccccc2)CC3)no1` (stereo not shown) [Example 65, 3-(5-Chloro-1-methyl-4-((9-(1-phenylethyl)-3,9-diazaspiro[5.5]undecan-3-yl)methyl)-1H-pyrazol-3-yl)-5-methylisoxazole], the Ki at human σ2/TMEM97 receptor and on human σ1 receptor was 100 to 500 nM each time.

With `Cc1cc(-c2nn(C)c(Cl)c2CN2CCC3(CCN(Cc4ccccc4)CC3)CC2)no1` [Example 66, 3-(4-((9-Benzyl-3,9-diazaspiro[5.5]undecan-3-yl)methyl)-5-chloro-1-methyl-1H-pyrazol-3-yl)-5-methylisoxazole], the Ki on human σ2/TMEM97 receptor and on human σ1 receptor was less than 100 nM each time.

As to `Cc1cc(-c2nn(C)c(Cl)c2CN2CCC3(CCN(CCC(C)C)CC3)CC2)no1` [Example 67, 3-(5-Chloro-4-((9-isopentyl-3,9-diazaspiro[5.5]undecan-3-yl)methyl)-1-methyl-1H-pyrazol-3-yl)-5-methylisoxazole], the Ki at human σ2/TMEM97 receptor was less than 100 nM; on human σ1 receptor, 500 to 1000 nM.

Take `Cc1cc(-c2nn(C)c(Cl)c2CN2CCC3(CC2)CCN(CC(C)(C)C)CC3)no1` [Example 68, 3-(5-Chloro-1-methyl-4-((9-neopentyl-3,9-diazaspiro[5.5]undecan-3-yl)methyl)-1H-pyrazol-3-yl)-5-methylisoxazole]: the figures for the Ki on human σ2/TMEM97 receptor and at human σ1 receptor were less than 100 nM and 100 to 500 nM, respectively.

In the case of `Cc1cc(-c2nn(C)c(Cl)c2CN2CC[C@]3(CCN(CCC(C)(C)C)C3)C2)no1` [Example 69, (S)-3-(5-Chloro-4-((7-(3,3-dimethylbutyl)-2,7-diazaspiro[4.4]nonan-2-yl)methyl)-1-methyl-1H-pyrazol-3-yl)-5-methylisoxazole], the Ki on human σ2/TMEM97 receptor and on human σ1 receptor was less than 100 nM throughout.

On to `Cc1cc(-c2nn(C)c(Cl)c2CN2CC[C@@]3(CCN(CCC(C)(C)C)C3)C2)no1` [Example 70, (R)-3-(5-chloro-4-((7-(3,3-dimethylbutyl)-2,7-diazaspiro[4.4]nonan-2-yl)methyl)-1-methyl-1H-pyrazol-3-yl)-5-methylisoxazole], for which the inhibition constant (Ki) at human σ2/TMEM97 receptor and at human σ1 receptor was less than 100 nM in each case.

In the case of `Cc1cc(-c2nn(C)c(Cl)c2CN2CC[C@H](CNCCc3ccccc3)C2)no1` [Example 71, (R)-N-((1-((5-Chloro-1-methyl-3-(5-methylisoxazol-3-yl)-1H-pyrazol-4-yl)methyl)pyrrolidin-3-yl)methyl)-2-phenylethanamine], the Ki on human σ2/TMEM97 receptor is 100 to 500 nM; at human σ1 receptor it was more than 1000 nM.

On to `Cc1cc(-c2nn(C)c(Cl)c2CN2CC[C@@H](CNCCc3ccccc3)C2)no1` [Example 72, (S)-N-((1-((5-chloro-1-methyl-3-(5-methylisoxazol-3-yl)-1H-pyrazol-4-yl)methyl)pyrrolidin-3-yl)methyl)-2-phenylethanamine], for which the Ki on human σ2/TMEM97 receptor lay within 100 to 500 nM; on human σ1 receptor it was 500 to 1000 nM.

On to `Cc1cc(-c2nn(C)c(Cl)c2CN2CC[C@@H](CNCCC(C)(C)C)C2)no1` [Example 73, (S)-N-((1-((5-Chloro-1-methyl-3-(5-methylisoxazol-3-yl)-1H-pyrazol-4-yl)methyl)pyrrolidin-3-yl)methyl)-3,3-dimethylbutan-1-amine], for which the Ki was less than 100 nM on human σ2/TMEM97 receptor and 100 to 500 nM on human σ1 receptor.

Regarding `Cc1cc(-c2nn(C)c(Cl)c2CN2CC[C@H](CNCCC(C)(C)C)C2)no1` [Example 74, (R)-N-((1-((5-chloro-1-methyl-3-(5-methylisoxazol-3-yl)-1H-pyrazol-4-yl)methyl)pyrrolidin-3-yl)methyl)-3,3-dimethylbutan-1-amine], the inhibition constant (Ki) is less than 100 nM at human σ2/TMEM97 receptor and 100 to 500 nM at human σ1 receptor.

On to `Cc1cc(-c2nn(C)c(Cl)c2CN2CC[C@]3(C2)C[C@H](NCCC(C)(C)C)C3)no1` [Example 75, (2s,4r)-6-((5-Chloro-1-methyl-3-(5-methylisoxazol-3-yl)-1H-pyrazol-4-yl)methyl)-N-(3,3-dimethylbutyl)-6-azaspiro[3.4]octan-2-amine], for which the results for the Ki at human σ2/TMEM97 receptor and at human σ1 receptor were less than 100 nM and 500 to 1000 nM, respectively.

As for `Cc1cc(-c2nn(C)c(Cl)c2CN2CC[C@]3(C2)C[C@@H](NCCC(C)(C)C)C3)no1` [Example 76], the Ki on human σ2/TMEM97 receptor and at human σ1 receptor was 100 to 500 nM each time.

As to `Cc1cc(-c2nn(C)c(Cl)c2CN2C[C@@H](CNCCC(C)(C)C)[C@H](C)C2)no1` [Example 77, N-(((3R,4S)-1-((5-Chloro-1-methyl-3-(5-methylisoxazol-3-yl)-1H-pyrazol-4-yl)methyl)-4-methylpyrrolidin-3-yl)methyl)-3,3-dimethylbutan-1-amine], the Ki at human σ2/TMEM97 receptor is less than 100 nM; on human σ1 receptor, 100 to 500 nM.

As for `Cc1cc(-c2nn(C)c(Cl)c2CN2C[C@H](CNCCC(C)(C)C)[C@@H](C)C2)no1` [Example 78, N-(((3S,4R)-1-((5-Chloro-1-methyl-3-(5-methylisoxazol-3-yl)-1H-pyrazol-4-yl)methyl)-4-methylpyrrolidin-3-yl)methyl)-3,3-dimethylbutan-1-amine], the values for the inhibition constant Ki on human σ2/TMEM97 receptor and on human σ1 receptor were less than 100 nM and 100 to 500 nM, respectively.

With `Cc1cc(-c2nn(C)c(Cl)c2CN2CCCCC(NCCN3CCCCC3)C2)no1` (stereo not shown) [Example 79, 1-((5-Chloro-1-methyl-3-(5-methylisoxazol-3-yl)-1H-pyrazol-4-yl)methyl)-N-(2-(piperidin-1-yl)ethyl)azepan-3-amine], the figures for the Ki at human σ2/TMEM97 receptor and on human σ1 receptor were 100 to 500 nM and more than 1000 nM, respectively.

As for `Cc1cc(-c2nn(C)c(Cl)c2CN2CCCCC(N(C)CCC(C)C)C2)no1` (stereo not shown) [Example 80, 1-((5-Chloro-1-methyl-3-(5-methylisoxazol-3-yl)-1H-pyrazol-4-yl)methyl)-N-isopentyl-N-methylazepan-3-amine], the Ki on human σ2/TMEM97 receptor lay within 500 to 1000 nM; at human σ1 receptor, 100 to 500 nM.

Take `Cc1cc(-c2nn(C)c(Cl)c2CN2CCCCC(N(C)CC3CCOCC3)C2)no1` (stereo not shown) [Example 81, 1-((5-Chloro-1-methyl-3-(5-methylisoxazol-3-yl)-1H-pyrazol-4-yl)methyl)-N-methyl-N-((tetrahydro-2H-pyran-4-yl)methyl)azepan-3-amine]: the inhibition constant (Ki) on human σ2/TMEM97 receptor and on human σ1 receptor was 100 to 500 nM in each case.
